Among the data in ChEMBL document CHEMBL5726327, “Kinase inhibitors” (2017) are IC50 values, retold here.

In this assay the target is Glycogen synthase kinase-3 alpha (Homo sapiens, UniProt P49840). Description: Enzyme Inhibition Assay: The inhibitory activities of compounds of the invention against the GSK 3α enzyme isoform (Invitrogen), are evaluated by determining the level of activation/phosphorylation of the target peptide. The GSK3-α protein (500 ng/mL, 2.5 μL) is mixed with the test compound (2.5 μL at either 4 μg/mL, 0.4 μg/mL, 0.04 μg/mL, or 0.004 μg/mL) for 2 hr at RT. The FRET peptide (8 μM, 2.5 μL), which is a phosphorylation target for GSK3α, and ATP (40 μM, 2.5 μL) are then added to the enzyme/compound mixture and the resulting mixture incubated for 1 hr. Development reagent (protease, 5 μL) is added for 1 hr prior to detection in a fluorescence microplate reader (Varioskan® Flash, ThermoFisher Scientific).In all cases, the site-specific protease cleaves non-phosphorylated peptide only and eliminates the FRET signal. Phosphorylation levels of each reaction are calculated using the ratio of coumarin emission (donor) over fluorescein emission (acceptor), for which high ratios indicate […] phosphorylation levels.
Chain of Glycogen synthase kinase-3 alpha (P49840 whole entry, canonical isoform): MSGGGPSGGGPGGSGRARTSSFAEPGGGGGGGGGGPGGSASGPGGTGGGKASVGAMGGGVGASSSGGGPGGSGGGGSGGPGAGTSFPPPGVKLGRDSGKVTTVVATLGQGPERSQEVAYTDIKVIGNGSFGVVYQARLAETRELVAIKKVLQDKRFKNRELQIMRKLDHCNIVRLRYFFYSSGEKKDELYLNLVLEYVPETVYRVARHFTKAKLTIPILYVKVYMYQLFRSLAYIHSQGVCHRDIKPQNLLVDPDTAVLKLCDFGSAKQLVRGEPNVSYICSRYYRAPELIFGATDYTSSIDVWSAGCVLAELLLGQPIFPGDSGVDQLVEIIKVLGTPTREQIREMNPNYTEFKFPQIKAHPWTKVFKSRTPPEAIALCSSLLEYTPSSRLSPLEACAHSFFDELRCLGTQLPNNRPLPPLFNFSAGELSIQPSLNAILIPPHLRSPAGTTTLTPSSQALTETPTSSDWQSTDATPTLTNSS

What is called IC50 is the concentration needed to halve the response being measured. For the compound `COc1cc(N=S(C)(C)=O)cc(Nc2nccc(Oc3ccc(NC(=O)Nc4cc(C(C)C)nn4-c4ccc(C)cc4)c4ccccc34)n2)c1`, the IC50 was 0.824 µM.
The same measure for `COc1cc(Nc2nccc(Oc3ccc(NC(=O)Nc4cc(C(C)(C)C)nn4-c4ccc(C)cc4)c(Cl)c3Cl)n2)cc(S(=O)(=O)C2CC2)c1`: above 10 µM.
